These results are taken from US5977119A, “Trisubstituted thioxanthines” (Euro-Celtique, S.A., priority 1997, dated 1999).

Series [1] relates to bronchial and coronary dilation. The conditions noted are these: in words; cited from earlier work.
The test system of series [2] is Type IV PDE isolated from bovine tracheal smooth muscle (PDE IV). The series can be described thus: Type IV PDE activity (hydrolysis of [^3 H]-cyclic AMP). The following applies: cyclic AMP 0.2 mM, 2.5% dimethyl sulfoxide, * = disubstituted analog. The series is classed as biochemical. The source says:
In addition, the PDE IV inhibitory compounds of the present invention may be examined for their PDE IV inhibitory effects via the techniques set forth in the following examples, wherein the ability of the compounds to inhibit PDE IV isolated from bovine tracheal smooth muscle is set forth.
The Type IV PDE is isolated from bovine tracheal smooth muscle using a procedure similar to that previously described by Silver, P. J. et al., Eur. J. Pharmacol. 150:85,1988.(1). Briefly, smooth muscle from bovine trachea is minced and homogenized using a polytron in 10 volumes of an extraction buffer containing 10 mM Tris-acetate (pH 7.5), 2 mM magnesium chloride, 1 mM dithiothreitol and 2,000 units/ml of aprotinin. This and all subsequent procedures are performed at 0-4° C. The homogenate is sonicated and then centrifuged at 48,000×g for 30 minutes. The resulting supernatant is applied to a DEAE Trisacryl M column previously equilibrated with sodium acetate and dithiothreitol. After applications of the sample, the column is washed with sodium acetate/ dithiothreitol, after which the different forms of PDE are eluted from the column using a linear Tris-HCl/NaCl gradient. Fractions containing Type IV PDE are collected, dialyzed and concentrated to 14% of the original volume. The concentrated fractions are diluted to 50% with ethylene glycol and stored at -20° C.
Enzyme activity is assessed by measuring the hydrolysis of [^3 H]-cyclic AMP, as described by Thompson, W. J. et al., Adv. Cyclic Nucleotide Res. 10:69, 1979. The cyclic AMP concentration used in this assay is 0.2 mM, which approximates the Km value. Protein concentration is adjusted to ensure that no more than 15% of the available substrate is hydrolyzed during the incubation period.
All test compounds are dissolved in dimethyl sulfoxide (final concentration of 2.5%). This concentration of dimethyl sulfoxide inhibits enzyme activity by approximately 10%.

The test system of series [3] is neutrophils and eosinophils. The following applies: in-vitro, in words; cited from earlier work.
For the next series, the system named is lymphocytes. The following applies: in-vitro, in words; cited from earlier work.
The test system of series [4] is mast cells, basophils, monocytes and eosinophils. The conditions noted are these: in-vitro, in words; cited from earlier work.
Another series relates to PDE IV. The following applies: in words, background; cited from earlier work.
The test system of the next series is PDE III. The conditions noted are these: in words, background; cited from earlier work.
The conditions of series [5]: in words; cited from earlier work.

As for `Cc1nc2c([nH]1)c(=S)n(C)c(=O)n2C` [1,3,8-trimethyl-6-thioxanthine], the “bronchial and coronary dilator activity” value in series [1] was “having bronchial and coronary dilator activity”.

`CCn1c(=S)c2[nH]c(C(C)C)nc2n(CC)c1=O` [1,3-diethyl-8-isopropyl-6-thioxanthine, 1,3-Diethyl-8-isopropyl-6-thioxanthine]: in series [2], the IC50 (in general, the concentration that gives 50% inhibition) came to 1.2 µM.

Turning to `CCc1nc2c([nH]1)c(=S)n(C)c(=O)n2C` [1,3-dimethyl-8-ethyl-6-thioxanthine], the “bronchial and coronary dilator activity” value in series [1] is “having bronchial and coronary dilator activity”.

As to `CCn1c(=O)n(C)c(=S)c2[nH]c(C(C)C)nc21` [3-ethyl-1-methyl-8-isopropyl-6-thioxanthine], it took 1 µM to reach half-maximal inhibition in series [2] (IC50).

In series [2], `CCn1c(=O)[nH]c(=S)c2[nH]c(C(C)C)nc21` [3-ethyl-8-isopropyl-6-thioxanthine] came in with an IC50 of 4.6 µM.

`CCCn1c(=O)[nH]c(=S)c2[nH]c(CC)nc21` [3-propyl-8-ethyl-6-thioxanthine]: in series [2], inhibition was half-maximal at 18.4 µM (IC50).

In series [2], `CCCn1c(=S)c2[nH]c(C3CC3)nc2n(CCC)c1=O` [8-Cyclopropyl-1,3-dipropyl-6-thioxanthine] showed an IC50 of 2.97 µM.

For `CCC(C)Cn1c(=O)n(CC)c(=S)c2[nH]c(C3CC3)nc21` (stereo not shown) [8-Cyclopropyl-1-ethyl-3-(2-methyl-butyl)-6-thioxanthine], in series [2], the IC50 stood at 1.18 µM.

Regarding `CCC(C)Cn1c(=O)[nH]c(=S)c2[nH]c(C3CC3)nc21` (stereo not shown) [8-cyclopropyl-3-(2-methyl-butyl)-6-thioxanthine], the IC50 in series [2] is 3.83 µM.

As to `CCCn1c(=O)[nH]c(=S)c2[nH]c(C3CC3)nc21` [8-cyclopropyl-3-propyl-6-thioxanthine], in series [2], half-maximal inhibition (IC50) was put at 4.47 µM.

For the compound `CCCn1c(=S)c2[nH]c(C(C)C)nc2n(CCC)c1=O` [8-isopropyl-1,3-dipropyl-6-thioxanthine, 1,3-Dipropyl-8-isopropyl-6-thioxanthine], the IC50 in series [2] amounted to 1.67 µM.

In series [2], `CCCn1c(=O)[nH]c(=S)c2[nH]c(C(C)C)nc21` [8-isopropyl-3-propyl-6-thioxanthine] had an IC50 of 3.3 µM.

In the case of `CCCCOc1cc(CC2CNC(=O)N2)ccc1OC` (stereo not shown) [Ro-201724], in series [3], the “inhibition of respiratory burst, chemotaxis and degranulation” value was “shown to inhibit”. Further, in the series on lymphocytes, the “inhibition of mitogen-dependent growth and differentiation” value is listed as “shown to inhibit”. The “inhibition of mediator synthesis/release” value in series [4] is listed as “shown to inhibit”.

`COc1ccc(C2CNC(=O)C2)cc1OC1CCCC1` (stereo not shown) [Rolipram]: the “inhibition of respiratory burst, chemotaxis and degranulation” value in series [3] is “shown to inhibit”. For the same compound, in the series with PDE IV, the “PDE IV inhibition” value is “selectively inhibit the PDE IV enzyme”. Moreover, the “inhibition of mitogen-dependent growth and differentiation” value in the series on lymphocytes is recorded as “shown to inhibit”. The “inhibition of mediator synthesis/release” value in series [4] was “shown to inhibit”.

For the compound `Cn1c(=O)c2[nH]cnc2n(C)c1=O` [Theophylline], in the series on PDE III, the “PDE III inhibition” value was “inhibits both PDE III and PDE IV”. Also, the “PDE IV inhibition” value with PDE IV is “inhibits both PDE III and PDE IV”. Further, in series [5], the therapeutic index entry is “narrow therapeutic index”.
